Laboratory results from publication PMC6704710, “Preclinical evaluation of 3D185, a novel potent inhibitor of FGFR1/2/3 and CSF-1R, in FGFR-dependent and macrophage-dominant cancer models” (Journal of Experimental & Clinical Cancer Research : CR, 2019).

Tests used:
Type in all cases: biochemical
Plk3(h) = biological target: T1, Plk3(h) (Homo sapiens, UniProt Q9H4B4); assay: Eurofins kinase panel; details: read-out: Inhibition rate (%)
T1 construct: purchased Eurofins (KinaseProfiler)

CHK2(R145W)(h) = biological target: T2, CHK2(R145W)(h) (Homo sapiens, UniProt O96017, R145W); assay: Eurofins kinase panel; details: read-out: Inhibition rate (%)
T2 construct: purchased Eurofins (KinaseProfiler)

ALK2(h) = biological target: T3, ALK2(h) (Homo sapiens, UniProt Q04771); assay: Eurofins kinase panel; details: read-out: Inhibition rate (%)
T3 construct: purchased Eurofins (KinaseProfiler)
T3 sequence (Q04771 21-509): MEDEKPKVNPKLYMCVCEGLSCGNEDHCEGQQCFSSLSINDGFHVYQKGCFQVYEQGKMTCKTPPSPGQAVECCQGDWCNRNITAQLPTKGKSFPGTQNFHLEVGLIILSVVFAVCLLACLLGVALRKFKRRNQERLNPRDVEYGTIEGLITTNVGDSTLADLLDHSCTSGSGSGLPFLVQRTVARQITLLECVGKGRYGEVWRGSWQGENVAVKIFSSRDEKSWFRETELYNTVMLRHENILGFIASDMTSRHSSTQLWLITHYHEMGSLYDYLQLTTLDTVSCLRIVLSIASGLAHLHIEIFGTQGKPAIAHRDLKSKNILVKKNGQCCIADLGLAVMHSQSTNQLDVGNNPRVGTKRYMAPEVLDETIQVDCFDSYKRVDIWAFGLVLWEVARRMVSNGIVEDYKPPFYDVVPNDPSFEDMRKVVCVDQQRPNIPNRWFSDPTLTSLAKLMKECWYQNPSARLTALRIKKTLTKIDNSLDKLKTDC

VEGFR2 (KDR) = biological target: T4, VEGFR2 (KDR) (Homo sapiens, UniProt P35968); assay: Kinase inhibition assay (ELISA)
T4 construct: purchased Eurofins (Fremont, United States)

PRAK(h) = biological target: T5, PRAK(h) (Homo sapiens, UniProt Q8IW41); assay: Eurofins kinase panel; details: read-out: Inhibition rate (%)
T5 construct: purchased Eurofins (KinaseProfiler)
T5 sequence (Q8IW41 1-473): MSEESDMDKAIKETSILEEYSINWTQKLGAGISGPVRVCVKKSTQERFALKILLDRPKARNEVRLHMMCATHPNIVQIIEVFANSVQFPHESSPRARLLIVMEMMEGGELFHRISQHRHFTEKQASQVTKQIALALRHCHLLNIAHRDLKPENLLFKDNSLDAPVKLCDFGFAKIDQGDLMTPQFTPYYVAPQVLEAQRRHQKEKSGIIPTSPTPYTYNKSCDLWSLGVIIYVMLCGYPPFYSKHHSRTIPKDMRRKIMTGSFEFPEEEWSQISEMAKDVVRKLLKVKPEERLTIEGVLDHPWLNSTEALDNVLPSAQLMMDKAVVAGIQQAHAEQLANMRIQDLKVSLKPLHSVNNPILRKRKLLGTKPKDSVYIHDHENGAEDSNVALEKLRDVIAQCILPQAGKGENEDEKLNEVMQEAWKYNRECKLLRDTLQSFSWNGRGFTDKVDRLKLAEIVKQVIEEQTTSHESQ

CDK7/cyclinH/MAT1(h) = biological target: T6, CDK7/cyclinH/MAT1(h) (Homo sapiens, UniProt P50613); assay: Eurofins kinase panel; details: read-out: Inhibition rate (%)
T6 construct: purchased Eurofins (KinaseProfiler)

MST4(h) = biological target: T7, MST4(h) (Homo sapiens, UniProt Q9P289); assay: Eurofins kinase panel; details: read-out: Inhibition rate (%)
T7 construct: purchased Eurofins (KinaseProfiler)

FGFR2(N549H)(h) = FGFR2(N549H)(h) (Homo sapiens, UniProt P21802, N549H); assay: Eurofins kinase panel
SGK3(h) = biological target: T8, SGK3(h) (Homo sapiens, UniProt Q96BR1); assay: Eurofins kinase panel; details: read-out: Inhibition rate (%)
T8 construct: purchased Eurofins (KinaseProfiler)
T8 sequence (Q96BR1 1-496): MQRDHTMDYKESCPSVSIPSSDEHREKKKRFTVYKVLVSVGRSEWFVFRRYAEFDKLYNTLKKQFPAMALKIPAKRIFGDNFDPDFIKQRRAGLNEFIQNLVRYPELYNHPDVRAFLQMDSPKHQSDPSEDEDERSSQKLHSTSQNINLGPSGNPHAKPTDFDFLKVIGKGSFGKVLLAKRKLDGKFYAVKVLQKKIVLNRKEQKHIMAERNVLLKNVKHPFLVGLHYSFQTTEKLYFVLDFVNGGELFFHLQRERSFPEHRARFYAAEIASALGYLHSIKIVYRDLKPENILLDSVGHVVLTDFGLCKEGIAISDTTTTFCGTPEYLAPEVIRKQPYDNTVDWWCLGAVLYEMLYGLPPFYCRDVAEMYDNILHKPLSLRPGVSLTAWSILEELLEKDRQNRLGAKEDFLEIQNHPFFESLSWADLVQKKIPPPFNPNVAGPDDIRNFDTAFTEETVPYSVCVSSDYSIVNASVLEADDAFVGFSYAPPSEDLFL

WNK3(h) = biological target: T9, WNK3(h) (Homo sapiens, UniProt Q9BYP7); assay: Eurofins kinase panel; details: read-out: Inhibition rate (%)
T9 construct: purchased Eurofins (KinaseProfiler)

CDK12/cyclinK(h) = biological target: T10, CDK12/cyclinK(h) (Homo sapiens, UniProt Q9NYV4); assay: Eurofins kinase panel; details: read-out: Inhibition rate (%)
T10 construct: purchased Eurofins (KinaseProfiler)

TSSK4(h) = biological target: T11, TSSK4(h) (Homo sapiens, UniProt Q6SA08); assay: Eurofins kinase panel; details: read-out: Inhibition rate (%)
T11 construct: purchased Eurofins (KinaseProfiler)
T11 sequence (Q6SA08 1-328): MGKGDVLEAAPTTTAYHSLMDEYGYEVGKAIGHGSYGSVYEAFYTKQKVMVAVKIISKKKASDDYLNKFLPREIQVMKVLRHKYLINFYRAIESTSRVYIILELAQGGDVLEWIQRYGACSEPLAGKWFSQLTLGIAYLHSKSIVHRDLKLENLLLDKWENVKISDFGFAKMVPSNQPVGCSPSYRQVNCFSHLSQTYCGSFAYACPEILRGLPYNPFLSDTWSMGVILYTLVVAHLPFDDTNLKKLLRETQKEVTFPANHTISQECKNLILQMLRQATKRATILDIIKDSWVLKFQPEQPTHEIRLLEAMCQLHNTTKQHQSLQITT

Chain of FGFR2(N549H)(h) (P21802 22-821 N549H): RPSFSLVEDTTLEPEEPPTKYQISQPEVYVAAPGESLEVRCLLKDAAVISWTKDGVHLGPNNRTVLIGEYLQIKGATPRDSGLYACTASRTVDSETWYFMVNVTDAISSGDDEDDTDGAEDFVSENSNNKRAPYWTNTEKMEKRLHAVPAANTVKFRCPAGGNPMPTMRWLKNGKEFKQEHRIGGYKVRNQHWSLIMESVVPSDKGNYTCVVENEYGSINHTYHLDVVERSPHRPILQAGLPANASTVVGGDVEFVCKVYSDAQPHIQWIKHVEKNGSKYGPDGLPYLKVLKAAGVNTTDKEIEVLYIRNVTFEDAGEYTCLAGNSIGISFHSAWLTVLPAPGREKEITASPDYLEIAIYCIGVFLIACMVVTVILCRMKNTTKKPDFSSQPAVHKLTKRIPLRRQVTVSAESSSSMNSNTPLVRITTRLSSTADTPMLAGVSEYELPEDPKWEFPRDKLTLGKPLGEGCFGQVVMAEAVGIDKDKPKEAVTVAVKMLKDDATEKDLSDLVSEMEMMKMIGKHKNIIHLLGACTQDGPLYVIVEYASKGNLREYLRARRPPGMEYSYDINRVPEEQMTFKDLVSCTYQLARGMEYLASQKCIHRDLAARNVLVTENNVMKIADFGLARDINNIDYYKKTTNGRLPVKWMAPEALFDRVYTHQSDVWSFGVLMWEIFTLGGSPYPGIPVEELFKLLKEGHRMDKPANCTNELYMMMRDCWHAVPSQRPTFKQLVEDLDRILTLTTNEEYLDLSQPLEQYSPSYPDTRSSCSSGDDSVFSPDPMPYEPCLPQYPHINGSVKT
T9 sequence (Q9BYP7 whole entry): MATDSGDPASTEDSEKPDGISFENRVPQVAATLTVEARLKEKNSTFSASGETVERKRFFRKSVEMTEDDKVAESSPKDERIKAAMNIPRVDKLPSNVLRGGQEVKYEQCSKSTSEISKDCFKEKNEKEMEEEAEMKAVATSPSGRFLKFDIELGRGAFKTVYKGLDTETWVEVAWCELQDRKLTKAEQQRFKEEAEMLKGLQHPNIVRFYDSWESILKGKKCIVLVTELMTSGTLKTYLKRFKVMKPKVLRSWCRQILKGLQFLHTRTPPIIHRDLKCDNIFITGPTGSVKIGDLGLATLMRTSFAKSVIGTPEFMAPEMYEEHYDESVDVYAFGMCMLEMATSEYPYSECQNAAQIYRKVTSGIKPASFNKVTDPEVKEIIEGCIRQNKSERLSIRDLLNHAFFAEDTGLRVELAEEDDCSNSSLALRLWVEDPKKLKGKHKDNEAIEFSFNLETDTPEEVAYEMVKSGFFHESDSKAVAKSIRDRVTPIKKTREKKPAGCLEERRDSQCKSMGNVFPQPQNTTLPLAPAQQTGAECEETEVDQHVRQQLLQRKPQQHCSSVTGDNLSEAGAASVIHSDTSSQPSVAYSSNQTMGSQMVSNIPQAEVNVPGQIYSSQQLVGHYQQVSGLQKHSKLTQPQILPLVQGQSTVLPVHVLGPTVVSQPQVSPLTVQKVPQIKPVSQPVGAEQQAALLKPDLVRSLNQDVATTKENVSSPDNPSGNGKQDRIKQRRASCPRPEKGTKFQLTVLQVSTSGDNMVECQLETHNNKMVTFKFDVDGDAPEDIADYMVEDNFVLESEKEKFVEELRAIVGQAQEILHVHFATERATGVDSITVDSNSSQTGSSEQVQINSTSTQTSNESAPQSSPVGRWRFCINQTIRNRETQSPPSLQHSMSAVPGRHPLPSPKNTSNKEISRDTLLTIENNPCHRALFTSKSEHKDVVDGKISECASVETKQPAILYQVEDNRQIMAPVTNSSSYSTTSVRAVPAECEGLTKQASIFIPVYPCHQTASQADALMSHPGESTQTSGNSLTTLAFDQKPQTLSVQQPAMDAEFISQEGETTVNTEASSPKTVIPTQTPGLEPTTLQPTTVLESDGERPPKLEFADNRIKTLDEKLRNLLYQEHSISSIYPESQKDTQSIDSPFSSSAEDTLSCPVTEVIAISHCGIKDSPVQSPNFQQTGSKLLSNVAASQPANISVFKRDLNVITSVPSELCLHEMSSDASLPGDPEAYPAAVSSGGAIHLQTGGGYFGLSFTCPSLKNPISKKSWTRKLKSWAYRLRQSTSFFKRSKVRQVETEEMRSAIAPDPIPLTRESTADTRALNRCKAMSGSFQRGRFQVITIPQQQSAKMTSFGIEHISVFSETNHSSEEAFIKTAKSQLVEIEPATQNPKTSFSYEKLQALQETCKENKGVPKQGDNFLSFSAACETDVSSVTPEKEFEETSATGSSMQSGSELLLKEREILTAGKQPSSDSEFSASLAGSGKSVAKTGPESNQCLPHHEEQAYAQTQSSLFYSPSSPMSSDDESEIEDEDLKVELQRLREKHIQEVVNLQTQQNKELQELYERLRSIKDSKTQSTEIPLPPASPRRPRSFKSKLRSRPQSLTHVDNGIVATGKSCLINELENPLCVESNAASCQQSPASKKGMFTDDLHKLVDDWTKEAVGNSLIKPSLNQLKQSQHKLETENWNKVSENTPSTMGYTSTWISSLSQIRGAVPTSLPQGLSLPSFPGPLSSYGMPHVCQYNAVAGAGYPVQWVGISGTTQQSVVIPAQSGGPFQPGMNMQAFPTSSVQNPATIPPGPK
T7 sequence (Q9P289 whole entry): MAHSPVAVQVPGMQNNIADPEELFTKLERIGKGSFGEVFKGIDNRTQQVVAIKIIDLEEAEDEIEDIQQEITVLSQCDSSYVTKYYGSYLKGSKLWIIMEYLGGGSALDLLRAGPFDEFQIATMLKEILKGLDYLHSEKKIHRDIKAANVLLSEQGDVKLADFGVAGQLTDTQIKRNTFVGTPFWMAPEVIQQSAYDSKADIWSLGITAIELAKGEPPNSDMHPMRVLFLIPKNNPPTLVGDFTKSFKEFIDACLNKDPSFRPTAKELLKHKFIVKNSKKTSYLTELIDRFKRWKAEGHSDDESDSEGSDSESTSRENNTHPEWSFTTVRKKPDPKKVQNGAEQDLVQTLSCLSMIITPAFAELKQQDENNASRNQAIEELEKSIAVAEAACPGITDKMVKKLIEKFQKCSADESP
T1 sequence (Q9H4B4 whole entry): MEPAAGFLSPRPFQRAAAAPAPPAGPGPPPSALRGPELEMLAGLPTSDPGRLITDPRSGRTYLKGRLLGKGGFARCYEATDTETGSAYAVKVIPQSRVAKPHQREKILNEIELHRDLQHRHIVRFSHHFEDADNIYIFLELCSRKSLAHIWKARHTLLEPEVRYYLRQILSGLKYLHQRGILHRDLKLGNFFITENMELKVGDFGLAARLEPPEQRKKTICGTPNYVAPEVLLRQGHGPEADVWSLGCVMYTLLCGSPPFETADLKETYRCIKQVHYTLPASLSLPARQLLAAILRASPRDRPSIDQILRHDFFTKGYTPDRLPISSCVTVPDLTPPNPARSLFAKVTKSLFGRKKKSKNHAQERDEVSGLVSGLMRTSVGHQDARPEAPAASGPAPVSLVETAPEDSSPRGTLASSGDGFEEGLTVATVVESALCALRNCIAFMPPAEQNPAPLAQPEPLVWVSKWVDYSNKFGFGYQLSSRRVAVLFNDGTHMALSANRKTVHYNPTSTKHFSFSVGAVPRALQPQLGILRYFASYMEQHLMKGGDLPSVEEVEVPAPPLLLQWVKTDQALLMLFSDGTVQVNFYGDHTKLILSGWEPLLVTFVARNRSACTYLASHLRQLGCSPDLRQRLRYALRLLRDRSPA
T2 sequence (O96017 whole entry R145W): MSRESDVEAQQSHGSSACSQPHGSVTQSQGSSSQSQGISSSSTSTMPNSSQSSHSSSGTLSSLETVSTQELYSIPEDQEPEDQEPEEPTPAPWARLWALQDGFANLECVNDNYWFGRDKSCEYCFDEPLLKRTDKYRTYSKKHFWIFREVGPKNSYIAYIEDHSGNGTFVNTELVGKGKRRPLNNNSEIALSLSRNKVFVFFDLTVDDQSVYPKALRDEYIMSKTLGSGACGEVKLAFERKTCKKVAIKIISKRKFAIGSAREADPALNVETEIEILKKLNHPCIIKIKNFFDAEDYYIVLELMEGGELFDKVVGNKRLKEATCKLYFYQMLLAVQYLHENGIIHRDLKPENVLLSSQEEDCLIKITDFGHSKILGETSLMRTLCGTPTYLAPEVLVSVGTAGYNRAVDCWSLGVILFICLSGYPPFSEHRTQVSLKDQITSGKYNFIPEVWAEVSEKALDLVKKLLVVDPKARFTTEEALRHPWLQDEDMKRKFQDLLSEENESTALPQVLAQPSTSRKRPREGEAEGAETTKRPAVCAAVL

Compound: COc1cc(OC)c(Cl)c(-c2ccc3c(NC(=O)c4ccc(N5CCNC(C)(C)C5)cc4)n[nH]c3n2)c1Cl [3D185]
- inhibition at 0.01 µM (Plk3(h); 10 nM): 5%
- inhibition at 0.1 µM (Plk3(h); 100 nM): 1%
- inhibition at 1 µM (Plk3(h); 1000 nM): 6%
- inhibition at 0.01 µM (CHK2(R145W)(h); 10 nM): -17%
- inhibition at 0.1 µM (CHK2(R145W)(h); 100 nM): -15%
- inhibition at 1 µM (CHK2(R145W)(h); 1000 nM): -4%
- inhibition at 0.01 µM (ALK2(h); 10 nM): -10%
- inhibition at 0.1 µM (ALK2(h); 100 nM): -15%
- inhibition at 1 µM (ALK2(h); 1000 nM): -4%
- IC50 (VEGFR2 (KDR); mean ± SD): 382 nM
- selectivity for FGFR1 over KDR (VEGFR2 (KDR); molecular kinase assays): over 760 fold
- inhibition at 0.01 µM (PRAK(h); 10 nM): -18%
- inhibition at 0.1 µM (PRAK(h); 100 nM): -24%
- inhibition at 1 µM (PRAK(h); 1000 nM): -10%
- inhibition at 0.01 µM (CDK7/cyclinH/MAT1(h); 10 nM): 12%
- inhibition at 0.1 µM (CDK7/cyclinH/MAT1(h); 100 nM): 11%
- inhibition at 1 µM (CDK7/cyclinH/MAT1(h); 1000 nM): 11%
- inhibition at 0.01 µM (MST4(h); 10 nM): 6%
- inhibition at 0.1 µM (MST4(h); 100 nM): 27%
- inhibition at 1 µM (MST4(h); 1000 nM): 70%
- IC50 (FGFR2(N549H)(h); estimated from 372-kinase panel): < 10 nM
- inhibition at 0.01 µM (FGFR2(N549H)(h); read-out: Inhibition rate (%)): 96%
- inhibition at 0.1 µM (FGFR2(N549H)(h); read-out: Inhibition rate (%)): 98%
- inhibition at 1 µM (FGFR2(N549H)(h); read-out: Inhibition rate (%)): 100%
- inhibition at 0.01 µM (SGK3(h); 10 nM): 3%
- inhibition at 0.1 µM (SGK3(h); 100 nM): 2%
- inhibition at 1 µM (SGK3(h); 1000 nM): 14%
- inhibition at 0.01 µM (WNK3(h); 10 nM): -7%
- inhibition at 0.1 µM (WNK3(h); 100 nM): 12%
- inhibition at 1 µM (WNK3(h); 1000 nM): 71%
- inhibition at 0.01 µM (CDK12/cyclinK(h); 10 nM): -6%
- inhibition at 0.1 µM (CDK12/cyclinK(h); 100 nM): 4%
- inhibition at 1 µM (CDK12/cyclinK(h); 1000 nM): 7%
- inhibition at 0.01 µM (TSSK4(h); 10 nM): -6%
- inhibition at 0.1 µM (TSSK4(h); 100 nM): -10%
- inhibition at 1 µM (TSSK4(h); 1000 nM): -9%
